Test results as given in the NIST ThermoML archive (doi:10.1016/j.jct.2010.08.016).

Experiment: xn = mol fraction of the nth substance listed
Details: 101 kPa, Liquid; for electrical conductivity: Alternating current cell with electrodes; for mass density: Vibrating tube method

NC(CO)(CO)CO [2-amino-2-(hydroxymethyl)-1,3-propanediol] + O
Details | electrical conductivity [S/m] | mass density [kg/m3]
293.15 K, x1 = 0.01 | 0.0158 | 1022.2
293.15 K, x1 = 0.02 | 0.0179 | 1036.6
293.15 K, x1 = 0.03 | 0.0189 | 1049.4
293.15 K, x1 = 0.04 | 0.0193 | 1056.4
293.15 K, x1 = 0.05 | 0.0205 | 1073.8
293.15 K, x1 = 0.06 | 0.0205 | 1079.9
293.15 K, x1 = 0.07 | 0.018 | 1090
303.15 K, x1 = 0.01 | 0.0195 | 1019.5
303.15 K, x1 = 0.02 | 0.0229 | 1033.6
303.15 K, x1 = 0.03 | 0.0247 | 1046.2
303.15 K, x1 = 0.04 | 0.0253 | 1053.3
303.15 K, x1 = 0.05 | 0.0271 | 1070.3
303.15 K, x1 = 0.06 | 0.0271 | 1076.2
303.15 K, x1 = 0.07 | 0.0235 | 1086.3
313.15 K, x1 = 0.01 | 0.0241 | 1016
313.15 K, x1 = 0.02 | 0.0287 | 1029.9
313.15 K, x1 = 0.03 | 0.031 | 1042.4
313.15 K, x1 = 0.04 | 0.0318 | 1049.3
313.15 K, x1 = 0.05 | 0.0341 | 1066.1
313.15 K, x1 = 0.06 | 0.0341 | 1071.8
313.15 K, x1 = 0.07 | 0.03 | 1081.8
323.15 K, x1 = 0.01 | 0.0287 | 1011.6
323.15 K, x1 = 0.02 | 0.0346 | 1025.5
323.15 K, x1 = 0.03 | 0.0373 | 1037.8
323.15 K, x1 = 0.04 | 0.0385 | 1044.7
323.15 K, x1 = 0.05 | 0.0411 | 1061.3
323.15 K, x1 = 0.06 | 0.0411 | 1067
323.15 K, x1 = 0.07 | 0.0367 | 1076.9
333.15 K, x1 = 0.01 | 0.0333 | 1006
333.15 K, x1 = 0.02 | 0.0403 | 1020
333.15 K, x1 = 0.03 | 0.0435 | 1032.7
333.15 K, x1 = 0.04 | 0.0452 | 1039.6
333.15 K, x1 = 0.05 | 0.0482 | 1056
333.15 K, x1 = 0.06 | 0.0482 | 1061.7
333.15 K, x1 = 0.07 | 0.0435 | 1071.4
343.15 K, x1 = 0.01 | 0.0378 | –
343.15 K, x1 = 0.02 | 0.046 | –
343.15 K, x1 = 0.03 | 0.0497 | –
343.15 K, x1 = 0.04 | 0.0518 | –
343.15 K, x1 = 0.05 | 0.0552 | –
343.15 K, x1 = 0.06 | 0.0552 | –
343.15 K, x1 = 0.07 | 0.0503 | –
